Test results from PubChem BioAssay AID2060500 (Molecular Pharmacology Branch, DTP, NCI, 2025).
pIC50: −log10 of the molar value.

Test system: 596521-263-R-J1-PDC complex spheroids, viability % of control
Test: Anticancer human tumor 596521-263-R-J1-PDC patient-derived soft tissue sarcoma cell line growth inhibition [GQUAD]
Details: for pIC50: curve of first compound; for viability, T/C: stronger effect = lower value
In short: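 Tumor cells were grown as complex spheroids with HUVEC endothelial cells and mesenchymal stem cells as stroma. G-quadruplex stabilizers were combined with targeted agents over half-log dilutions from near the clinical Cmax, or from 10 microM.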

[1] = second compound 0.0316 µM, first compound 0.0316 µM
[2] = second compound 0.0316 µM, first compound 0.1 µM
[3] = second compound 0.0316 µM, first compound 0.316 µM
[4] = second compound 0.0316 µM, first compound 1 µM
[5] = second compound 0.0316 µM, first compound 3.16 µM
[6] = second compound 0.0316 µM, first compound 10 µM
[7] = second compound 0.1 µM, first compound 0.0316 µM
[8] = second compound 0.1 µM, first compound 0.1 µM
[9] = second compound 0.1 µM, first compound 0.316 µM
[10] = second compound 0.1 µM, first compound 1 µM
[11] = second compound 0.1 µM, first compound 3.16 µM
[12] = second compound 0.1 µM, first compound 10 µM
[13] = second compound 0.316 µM, first compound 0.0316 µM
[14] = second compound 0.316 µM, first compound 0.1 µM
[15] = second compound 0.316 µM, first compound 0.316 µM
[16] = second compound 0.316 µM, first compound 1 µM
[17] = second compound 0.316 µM, first compound 3.16 µM
[18] = second compound 0.316 µM, first compound 10 µM
[19] = second compound 1 µM, first compound 0.0316 µM
[20] = second compound 1 µM, first compound 0.1 µM
[21] = second compound 1 µM, first compound 0.316 µM
[22] = second compound 1 µM, first compound 1 µM
[23] = second compound 1 µM, first compound 3.16 µM
[24] = second compound 1 µM, first compound 10 µM
[25] = second compound 3.16 µM, first compound 0.0316 µM
[26] = second compound 3.16 µM, first compound 0.1 µM
[27] = second compound 3.16 µM, first compound 0.316 µM
[28] = second compound 3.16 µM, first compound 1 µM
[29] = second compound 3.16 µM, first compound 3.16 µM
[30] = second compound 3.16 µM, first compound 10 µM
[31] = second compound 10 µM, first compound 0.0316 µM
[32] = second compound 10 µM, first compound 0.1 µM
[33] = second compound 10 µM, first compound 0.316 µM
[34] = second compound 10 µM, first compound 1 µM
[35] = second compound 10 µM, first compound 3.16 µM
[36] = second compound 10 µM, first compound 10 µM
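Also: spheroids exposed to drugs for 7 days before viability reading.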
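For viability, T/C in this document: 100% = DMSO vehicle control viability.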

Compound: CCCS(=O)(=O)Nc1ccc(F)c(C(=O)c2c[nH]c3ncc(-c4ccc(Cl)cc4)cc23)c1F + Cc1[nH]c2ccc(F)cc2c1-c1nc2c3cccnc3c3ncccc3c2[nH]1
- pIC50 (second compound 0.0316 µM): 6.30
- pIC50 (second compound 0.1 µM): 6.45
- pIC50 (second compound 0.316 µM): 6.08
- pIC50 (second compound 1 µM): 6.30
- pIC50 (second compound 3.16 µM): 6.42
- pIC50 (second compound 10 µM): 6.38
- viability, T/C [1]: 107%
- viability, T/C [2]: 73.5%
- viability, T/C [3]: 56.2%
- viability, T/C [4]: 41.7%
- viability, T/C [5]: 40.5%
- viability, T/C [6]: 40.2%
- viability, T/C [7]: 89.3%
- viability, T/C [8]: 74.2%
- viability, T/C [9]: 51.8%
- viability, T/C [10]: 36.8%
- viability, T/C [11]: 42.8%
- viability, T/C [12]: 31.1%
- viability, T/C [13]: 112%
- viability, T/C [14]: 81.4%
- viability, T/C [15]: 61.1%
- viability, T/C [16]: 44.4%
- viability, T/C [17]: 46.3%
- viability, T/C [18]: 33.1%
- viability, T/C [19]: 84.4%
- viability, T/C [20]: 81.6%
- viability, T/C [21]: 57.2%
- viability, T/C [22]: 38.4%
- viability, T/C [23]: 44.4%
- viability, T/C [24]: 29.7%
- viability, T/C [25]: 92.6%
- viability, T/C [26]: 70.4%
- viability, T/C [27]: 53.2%
- viability, T/C [28]: 37.6%
- viability, T/C [29]: 37.9%
- viability, T/C [30]: 32%
- viability, T/C [31]: 74.6%
- viability, T/C [32]: 58.5%
- viability, T/C [33]: 58%
- viability, T/C [34]: 38.1%
- viability, T/C [35]: 39.3%
- viability, T/C [36]: 30.4%

Compound: C=CCn1c(=O)c2cnc(Nc3ccc(N4CCN(C)CC4)cc3)nc2n1-c1cccc(C(C)(C)O)n1 + Cc1[nH]c2ccc(F)cc2c1-c1nc2c3cccnc3c3ncccc3c2[nH]1
- pIC50 (second compound 0.0316 µM): 5.24
- pIC50 (second compound 0.1 µM): 5.27
- pIC50 (second compound 0.316 µM): 5.26
- pIC50 (second compound 1 µM): 5.28
- pIC50 (second compound 3.16 µM): 5.25
- pIC50 (second compound 10 µM): 5.25
- viability, T/C [1]: 99.1%
- viability, T/C [2]: 97.8%
- viability, T/C [3]: 92.5%
- viability, T/C [4]: 88%
- viability, T/C [5]: 69.9%
- viability, T/C [6]: 32%
- viability, T/C [7]: 120%
- viability, T/C [8]: 91.6%
- viability, T/C [9]: 92.5%
- viability, T/C [10]: 94.7%
- viability, T/C [11]: 64.8%
- viability, T/C [12]: 30%
- viability, T/C [13]: 110%
- viability, T/C [14]: 88.3%
- viability, T/C [15]: 81.7%
- viability, T/C [16]: 84.5%
- viability, T/C [17]: 70.3%
- viability, T/C [18]: 31.2%
- viability, T/C [19]: 102%
- viability, T/C [20]: 88.8%
- viability, T/C [21]: 86.7%
- viability, T/C [22]: 90.2%
- viability, T/C [23]: 64.3%
- viability, T/C [24]: 31.3%
- viability, T/C [25]: 83.7%
- viability, T/C [26]: 85%
- viability, T/C [27]: 92.1%
- viability, T/C [28]: 86.2%
- viability, T/C [29]: 66.8%
- viability, T/C [30]: 33.7%
- viability, T/C [31]: 90.3%
- viability, T/C [32]: 82.2%
- viability, T/C [33]: 84.5%
- viability, T/C [34]: 79.2%
- viability, T/C [35]: 69.4%
- viability, T/C [36]: 31.2%

Compound: Cn1ncnc1[C@H]1c2n[nH]c(=O)c3cc(F)cc(c23)N[C@@H]1c1ccc(F)cc1 + Cc1[nH]c2ccc(F)cc2c1-c1nc2c3cccnc3c3ncccc3c2[nH]1
- pIC50 (second compound 0.0316 µM): < 6.50
- pIC50 (second compound 0.1 µM): < 6.50
- pIC50 (second compound 0.316 µM): < 6.50
- pIC50 (second compound 1 µM): < 6.50
- pIC50 (second compound 3.16 µM): < 6.50
- pIC50 (second compound 10 µM): < 6.50
- viability, T/C (second compound 0.0316 µM, first compound 0.000999 µM): 89.4%
- viability, T/C (second compound 0.0316 µM, first compound 0.00316 µM): 93.6%
- viability, T/C (second compound 0.0316 µM, first compound 0.00999 µM): 90.2%
- viability, T/C [1]: 86.6%
- viability, T/C (second compound 0.0316 µM, first compound 0.0999 µM): 95.2%
- viability, T/C [3]: 94.7%
- viability, T/C (second compound 0.1 µM, first compound 0.000999 µM): 101%
- viability, T/C (second compound 0.1 µM, first compound 0.00316 µM): 98.9%
- viability, T/C (second compound 0.1 µM, first compound 0.00999 µM): 96.7%
- viability, T/C [7]: 110%
- viability, T/C (second compound 0.1 µM, first compound 0.0999 µM): 94.1%
- viability, T/C [9]: 78.1%
- viability, T/C (second compound 0.316 µM, first compound 0.000999 µM): 95.2%
- viability, T/C (second compound 0.316 µM, first compound 0.00316 µM): 94.2%
- viability, T/C (second compound 0.316 µM, first compound 0.00999 µM): 97.9%
- viability, T/C [13]: 89.5%
- viability, T/C (second compound 0.316 µM, first compound 0.0999 µM): 80.4%
- viability, T/C [15]: 78.4%
- viability, T/C (second compound 1 µM, first compound 0.000999 µM): 94.8%
- viability, T/C (second compound 1 µM, first compound 0.00316 µM): 90.9%
- viability, T/C (second compound 1 µM, first compound 0.00999 µM): 88.6%
- viability, T/C [19]: 83.5%
- viability, T/C (second compound 1 µM, first compound 0.0999 µM): 85.9%
- viability, T/C [21]: 79.5%
- viability, T/C (second compound 3.16 µM, first compound 0.000999 µM): 89.3%
- viability, T/C (second compound 3.16 µM, first compound 0.00316 µM): 84.5%
- viability, T/C (second compound 3.16 µM, first compound 0.00999 µM): 84.7%
- viability, T/C [25]: 77.7%
- viability, T/C (second compound 3.16 µM, first compound 0.0999 µM): 81.8%
- viability, T/C [27]: 72.6%
- viability, T/C (second compound 10 µM, first compound 0.000999 µM): 73.8%
- viability, T/C (second compound 10 µM, first compound 0.00316 µM): 85.6%
- viability, T/C (second compound 10 µM, first compound 0.00999 µM): 86.4%
- viability, T/C [31]: 76.5%
- viability, T/C (second compound 10 µM, first compound 0.0999 µM): 72.5%
- viability, T/C [33]: 74.3%

Compound: CC1COCCN1c1cc(C2(O)CC3CCC(C2)O3)c2cnn(-c3ccn[nH]3)c2n1 (stereo not drawn) + CN(C)c1ccc(Nc2c3ccc(NC(=O)CCN4CCCC4)cc3nc3cc(NC(=O)CCN4CCCC4)ccc23)cc1
- pIC50 (second compound 0.0316 µM): 6.87
- pIC50 (second compound 0.1 µM): 6.66
- pIC50 (second compound 0.316 µM): 6.83
- pIC50 (second compound 1 µM): 6.79
- pIC50 (second compound 3.16 µM): 6.95
- pIC50 (second compound 10 µM): 7.18
- viability, T/C [1]: 72.6%
- viability, T/C [2]: 48.7%
- viability, T/C [3]: 40.9%
- viability, T/C [4]: 29.4%
- viability, T/C [5]: 24.3%
- viability, T/C [6]: 12.3%
- viability, T/C [7]: 70.3%
- viability, T/C [8]: 56.9%
- viability, T/C [9]: 48.3%
- viability, T/C [10]: 32.6%
- viability, T/C [11]: 22.8%
- viability, T/C [12]: 13.6%
- viability, T/C [13]: 66.3%
- viability, T/C [14]: 48.8%
- viability, T/C [15]: 47.3%
- viability, T/C [16]: 31.9%
- viability, T/C [17]: 20.4%
- viability, T/C [18]: 13.2%
- viability, T/C [19]: 69.6%
- viability, T/C [20]: 50.3%
- viability, T/C [21]: 46.6%
- viability, T/C [22]: 31.1%
- viability, T/C [23]: 24.7%
- viability, T/C [24]: 14.3%
- viability, T/C [25]: 58.5%
- viability, T/C [26]: 51.2%
- viability, T/C [27]: 40.5%
- viability, T/C [28]: 35.2%
- viability, T/C [29]: 23.9%
- viability, T/C [30]: 15.6%
- viability, T/C [31]: 61.7%
- viability, T/C [32]: 39%
- viability, T/C [33]: 36.8%
- viability, T/C [34]: 28.2%
- viability, T/C [35]: 21.6%
- viability, T/C [36]: 14.8%
